From paper PMC4244111, “Structure of Putrescine Aminotransferase from Escherichia coli Provides Insights into the Substrate Specificity among Class III Aminotransferases” (PLoS ONE, 2014)

Molecular target: T1, YgjG (Escherichia coli, UniProt P42588)
T1 construct: gene patA; full-length, C-terminal His6 tag, expressed in E. coli B834(DE3); homodimer; seven N-terminal and one C-terminal residues not visible
Assay: X-ray crystallography, […] Å
Type: binding
Details: crystal pH 7.5; covalent, Schiff base with Lys300; active site at dimer interface

T1 sequence (P42588 whole entry): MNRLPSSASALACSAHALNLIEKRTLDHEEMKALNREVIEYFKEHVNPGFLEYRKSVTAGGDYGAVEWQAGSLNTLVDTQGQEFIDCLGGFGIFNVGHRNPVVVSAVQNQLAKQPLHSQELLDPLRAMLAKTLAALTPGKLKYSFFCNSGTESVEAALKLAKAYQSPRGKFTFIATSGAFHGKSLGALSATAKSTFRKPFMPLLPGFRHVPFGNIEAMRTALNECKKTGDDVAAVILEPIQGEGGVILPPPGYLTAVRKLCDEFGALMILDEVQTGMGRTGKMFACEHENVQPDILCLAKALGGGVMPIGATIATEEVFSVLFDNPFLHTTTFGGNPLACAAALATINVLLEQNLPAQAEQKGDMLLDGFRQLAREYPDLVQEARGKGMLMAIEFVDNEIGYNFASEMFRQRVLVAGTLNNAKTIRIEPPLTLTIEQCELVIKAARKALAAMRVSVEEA

Cc1ncc(COP(=O)(O)O)c(C=O)c1O [pyridoxal-5′-phosphate]
X-ray crystallography, 2.3 Å: PLP is covalently linked to the strictly conserved lysine residue (Lys300) via a Schiff base linkage
